Laboratory results taken from patent publication US20250101378A1, “CULTURE MEDIUM AND CULTURE METHOD FOR MAMMARY EPITHELIAL CELLS, AND USE OF MAMMARY EPITHELIAL CELLS” (PRECEDO PHARMACEUTICALS CO., LTD, priority 2022, published 2025).

B1: fibroblast growth factor 10 (protein, UniProt O15520 38-208, looked up)
Fibroblast growth factor 10: QALGQDMVSPEATNSSSSSFSSPSSAGRHVRSYNHLQGDVRWRKLFSFTKYFLKIEKNGKVSGTKKENCPYSILEITSVEIGVVAVKAINSNYYLAMNKKGKLYGSKEFNNDCKLKERIEENGYNTYASFNWQHNGRQMYVALNGKGAPRRGQKTRRKNTSAHFLPMVVHS
notes: growth factor used as culture medium additive

Experiments:
Assay type in all cases: cell-based, human
breast tumor cells (5 #) = experiment: In vitro drug sensitivity test, Cell Titer-Glo cell viability; conditions: 72 hours after drug administration, 1:3 dilution series from 2 times Cmax
Method: I. Plating of primary breast cancer cells: using the culture medium of the invention in section (5) of Example 1, breast tumor cells (5 #) were cultured by the method described in section (1) of Example 2, and the cells were inoculated in a 384-well plate at a density of 3000 to 5000 cells/well, and the cells were subjected to adherent culture overnight.
(1) The drug storage plate was prepared by the concentration gradient dilution method: 10 μL of the drug stock solutions to be tested (the concentration of the drug stock solution was prepared at 2 times the maximum plasma concentration Cmax of the drug in the human body) were respectively taken and added to a 0.5 mL EP tube containing 20 μL of DMSO, and then 10 μL was aspirated from the above EP tube into a second 0.5 mL EP tube containing 20 μL of DMSO, that is, the drug was diluted 1:3. The above process was repeated for gradually dilution until 8 or 9 concentrations required for dosing were obtained. Different concentrations of drugs were added to the 384-well drug storage plate. Equal volume of DMSO was added to each well of the solvent control group as a control. In this example, the drugs to be tested are clinically approved anti-tumor drugs, docetaxel (MCE), palbociclib (MCE), dovitinib (MCE), capecitabine (MCE), crizotinib (MCE) and etoposide (MCE).
(2) Using a high-throughput automated workstation (purchased from Perkin Elmer), different concentrations of drugs and solvent controls in the 384-well drug storage plates were added to the 384-well cell culture plates plated with the breast tumor cells. Both the drug groups and the solvent control groups were set up with 3 replicate wells. The volume of drug added to each well was 100 nL.
(3) Cell activity detection: 72 hours after drug administration, Cell Titer-Glo assay kit (manufactured by Promega) was used to detect the chemiluminescence value of the cultured cells after drug administration. The magnitude of the chemiluminescence value reflects the cell viability and the effect of the drug on the cell viability. The prepared Cell Titer-Glo detection solution was added to each well, and a microplate reader was used to detect the chemiluminescence value after mixing.
Graphpad Prism 7.0 software was used to draw graphs and calculate the median inhibition concentration IC50.

[1] = tested on: primary breast cancer cells isolated from breast tumor tissue; experiment: Screening of additive factors in the culture medium of primary mammary epithelial cells (cell count after 14 days); parameters: key to Level of promoting proliferation: +: compared with the Basal Medium, the culture medium added with the additive(s) has the effect of promoting the proliferation of at least three cases of primary breast cancer cells isolated from breast tumor tissue; ++: the number of “+” indicates the degree of proliferation promotion; ++++: the number of “+” indicates the degree of proliferation promotion; −: the culture medium added with the additive(s) has the effect of inhibiting the proliferation of at least two cases of primary breast cancer cells isolated from breast tumor tissue; the culture medium added with the additive(s) has no significant effect on the proliferation of at least three cases of primary breast cancer cells isolated from breast tumor tissue; conditions: 14 days of culture; for Level of promoting proliferation: additive added to Basal Medium at the concentration of Table 1, cell count compared with Basal Medium, five breast tumor samples; for promotion of growth of primary breast tumor cells (in words): additive added to Basal Medium, compared with Basal Medium
Method: First, a basal culture medium based on WO 2021/088119 was prepared. To a commercially available DMEM/F-12 culture medium, GlutaMAX-I (manufactured by Thermo Fisher Scientific) was added at the concentration specified in the instruction manual (1:100 dilution), human insulin (Sigma) was added at a final concentration of 10 μg/ml, ROCK inhibitor Y27632 (Sigma) was added at a final concentration of 10 μM, penicillin-streptomycin (Thermo Fisher Scientific) was added at a 1:100 dilution, human amphiregulin (manufactured by R&D systems) was added at a final concentration of 20 ng/ml, epidermal growth factor (EGF, manufactured by Peprotech) was added at a final concentration of 10 ng/ml, B27 (Thermo Fisher Scientific) was added at a 1:50 dilution, human neuregulin 1 (Peprotech) was added at a final concentration of 10 nM, fibroblast growth factor 7 (FGF7, R&D systems) was added at a final concentration of 10 ng/ml), and TGFβ1 inhibitor A8301 (manufactured by MCE) was added at a final concentration of 500 nM, to prepare a basal culture medium for primary mammary epithelial cells, hereinafter referred to as “Basal Medium”.
Then, different types of additives (Table 1) were added to the Basal Medium to prepare culture mediums for mammary epithelial cells containing different additives. The culture medium with different components was added to a 24-well plate coated with extracellular matrix gel at a volume of 500 μl/well, and 3 replicates were prepared for each culture medium formulation. The breast cancer cells (1 #) isolated from the breast tumor tissue in Example (1) were inoculated at a cell density of 3×10^4 cells/well in a 24-well culture plate coated with extracellular matrix gel, and cultured at 37° C. and 5% CO2 concentration using different culture medium formulations, respectively. The culture medium was replaced every 3 days after the start of culture. After 14 days of culture, the cells were counted. Basal Medium without addition of any additive shown in Table 1 was used as an experimental control.
The tumor cells isolated from the rest four cases of breast tumor tissue samples were also cultured and counted in the same manner as above.

[2] = tested on: primary breast cancer cells (2 #); experiment: Optimization of the concentration of additives in the culture medium (cell count on day 14, FIGS. 1A-1G); conditions: graded concentrations added to Formulations 1-7, 96-well plate, day 14 cell count
Method: The following 7 different formulations of culture mediums were further prepared: • Formulation 1: the Basal Medium was added with 1:100-fold diluted MEM-NEAA, 1 mM sodium pyruvate, 50 ng/ml IGF1, 20 ng/ml bFGF, 10 ng/ml TNF-α and 20 ng/ml FGF10; • Formulation 2: the Basal Medium was added with 10 nM β-estradiol, 1 mM sodium pyruvate, 50 ng/ml IGF1, 20 ng/ml bFGF, 10 ng/ml TNF-α and 20 ng/ml of FGF10; • Formulation 3: the Basal Medium was added with 10 nM β-estradiol, 1:100-fold diluted MEM-NEAA, 50 ng/ml IGF1, 20 ng/ml bFGF, and 10 ng/ml TNF-α and 20 ng/ml FGF10; • Formulation 4: the Basal Medium was added with 10 nM β-estradiol, 1:100-fold diluted MEM-NEAA, 1 mM sodium pyruvate, 20 ng/ml bFGF, and 10 ng/ml TNF-α and 20 ng/ml FGF10; • Formulation 5: the Basal Medium was added with 10 nM β-estradiol, 1:100-fold diluted MEM-NEAA, 1 mM sodium pyruvate, 50 ng/ml IGF1, and 10 ng/ml TNF-α and FGF10 at 20 ng/ml; • Formulation 6: the Basal Medium was added with 10 nM β-estradiol, 1:100-fold diluted MEM-NEAA, 1 mM sodium pyruvate, 50 ng/ml IGF1, 20 ng/ml bFGF and 20 ng/ml FGF10; • Formulation 7: the Basal Medium was added with 10 nM β-estradiol, 1:100-fold diluted MEM-NEAA, 1 mM sodium pyruvate, 50 ng/ml IGF1, 20 ng/ml bFGF and 10 ng/ml of TNF-α.
Subsequently, β-estradiol (Sigma) was added to Formulation 1 to prepare culture mediums for human mammary epithelial cells containing β-estradiol at final concentrations of 5 nM, 10 nM, 50 nM, and 100 nM, and each culture medium was added to a 96-well plate coated with Matrigel at a volume of 100 μl/well, with 3 replicates for each concentration. The primary breast cancer cells (2 #) isolated from breast tumor tissue in Example (1) were seeded in a Matrigel-coated 96-well culture plate at a density of 500 cells/well and cultured in Formulation 1 containing different concentrations of β-estradiol at 37° C. and 5% CO2. The culture medium was replaced every 3 days after the start of culture. On the 14th day of culture, the cells were counted. Formulation 1 was used as an experimental control, i.e., the content of β-estradiol was 0 nM.
Non-essential amino acids (MEM-NEAA) additive (Thermo Fisher) was added to Formulation 2 at a dilution ratio of 1:200, 1:100, 1:50, and 1:20 to prepare culture mediums for human mammary epithelial cells containing different concentrations of non-essential amino acids. The culture mediums of different formulations were added to a 96-well plate coated with Matrigel at a volume of 100 μl/well, with 3 replicates for each concentration. Primary cells were cultured and counted in the same manner as above. As an experimental control, Formulation 2 was used, i.e., the content of non-essential amino acids was 0.
Similarly, sodium pyruvate (Thermo Fisher) was added to Formulation 3 to prepare culture mediums for human mammary epithelial cells containing sodium pyruvate at final concentrations of 0.5 mM, 1 mM, 2 mM, and 4 mM. […] Primary cells were cultured and counted in the same manner as above. […]
Then, insulin-like growth factor 1 (IGF1, manufactured by R&D) was added to formulation 4 to prepare culture mediums for human mammary epithelial cells containing IGF1 at final concentrations of 10 ng/ml, 20 ng/ml, 50 ng/ml, 100 ng/ml, and 200 ng/ml, and the culture mediums containing different concentrations of IGF1 were added to a 96-well plate coated with Matrigel at a volume of 100 μl/well, with 3 replicates for each concentration. Primary cells were cultured and counted in the same manner as above. […]

| Molecule | sensitivity of breast cancer cells to drug (in words) (breast tumor cells (5 #)) | Level of promoting proliferation [1] | effect on in vitro proliferation of primary breast cancer cells (in words) [2] | promotion of growth of primary breast tumor cells (in words) [1] |
| --- | --- | --- | --- | --- |
| CCCCCOC(=O)Nc1nc(=O)n([C@@H]2O[C@H](C)[C@@H](O)[C@H]2O)cc1F [capecitabine] | less sensitive |  |  |  |
| C[C@@H](Oc1cc(-c2cnn(C3CCNCC3)c2)cnc1N)c1c(Cl)ccc(F)c1Cl [crizotinib] | less sensitive |  |  |  |
| CC(=O)O[C@@]12CO[C@@H]1C[C@H](O)[C@@]1(C)C(=O)[C@H](O)C3=C(C)[C@@H](OC(=O)[C@H](O)[C@@H](NC(=O)OC(C)(C)C)c4ccccc4)C[C@@](O)([C@@H](OC(=O)c4ccccc4)[C@H]21)C3(C)C [docetaxel] | more sensitive |  |  |  |
| COc1cc([C@@H]2c3cc4c(cc3[C@@H](O[C@@H]3O[C@@H]5CO[C@@H](C)O[C@H]5[C@H](O)[C@H]3O)[C@H]3COC(=O)[C@H]23)OCO4)cc(OC)c1O [etoposide] | more sensitive |  |  |  |
| CC(=O)C(=O)[O-].[Na+] [sodium pyruvate] |  | ∘ |  |  |
| C[C@]12CC[C@@H]3c4ccc(O)cc4CC[C@H]3[C@@H]1CC[C@@H]2O [β-estradiol] |  | ∘ | obvious proliferative effects |  |
| basic fibroblast growth factor |  | ++ | obvious proliferative effects | stronger |
| insulin-like growth factor 1 |  | + | obvious proliferative effects | promote the growth |
| tumor necrosis factor α |  | ++ | obvious proliferative effects | stronger |
| B1 |  | + | dose-dependent pro-proliferation effect | promote the growth |
